This is an account of results in patent US11058114B2, “Use of n-arylamidine-substituted trifluoroethyl sulphoxide derivatives for controlling pests by watering, droplet application, dip application, soil injection or by treating seed” (BAYER CROPSCIENCE AKTIENGESELLSCHAFT, priority 2014, dated 2021).

SMILES strings stand for the structures.

In assay [1] the test system is greenhouse red spider mite (Tetranychus urticae), OP-resistant. The assay is described as follows: Tetranychus urticae spray test, OP-resistant (TETRUR SPRAY). The note with it: bean plants (Phaseolus vulgaris), 100% = all spider mites killed; for pest or weed control at 0.8 ppm / pest or weed control at 0.16 ppm / pest or weed control at 4 ppm: Tetranychus urticae, 336 h, 14 d, read-out: % effect after 14 d. In kind it is in vivo. As for the experimental part:
Tetranychus urticae—Spray Test; OP-Resistant (TETRUR)
(§1) Solvent: 7 parts by weight of dimethylformamide
Emulsifier: alkylaryl polyglycol ether
To produce a suitable active compound preparation, 1 part by weight of active compound was dissolved using the stated parts by weight of solvent and made up with water containing an emulsifier concentration of 1000 ppm until the desired concentration was attained. To produce further test concentrations, the preparation was diluted with emulsifier-containing water. Ammonium salts and penetrants (rapeseed oil methyl ester) were each added in a concentration of 1000 ppm to the solution of the preparations.
Bean plants (Phaseolus vulgaris) which were heavily infested by all stages of the greenhouse red spider mite (Tetranychus urticae) were sprayed with an active compound preparation of the desired concentration.
(§2) After the desired period of time, the efficacy in % was determined. 100% means that all the spider mites have been killed; 0% means that no spider mites have been killed.

The test system is the same in assay [2]. The assay is described as follows: Tetranychus urticae drench test, OP-resistant (TETRUR DRENCH). In kind it is in vivo. The conditions noted are these: bean plants (Phaseolus vulgaris) in soil pots, 100% = all spider mites killed; for pest or weed control at 0.8 ppm / pest or weed control at 0.16 ppm / pest or weed control at 4 ppm: Tetranychus urticae, in Phaseolus vulgaris, soil, 336 h, 14 d, read-out: % effect after 14 d. As for the experimental part: Tetranychus urticae—Drench Test, OP-Resistant (TETRUR)
as §1
Emulsifier: 2 parts by weight of alkylaryl polyglycol ether
To produce a suitable active compound preparation, 1 part by weight of active compound was mixed with the specified amounts of solvent and emulsifier, and the concentrate was diluted with water to the desired concentration, with the volume of soil which was drenched being taken into account. It was ensured that a concentration of 40 ppm of emulsifier in the soil was not exceeded. To produce further test concentrations, water was used for dilution.
Bean plants (Phaseolus vulgaris), in soil pots, which were heavily infested by all stages of the greenhouse red spider mite (Tetranychus urticae) were watered with an active compound preparation of the desired concentration.
as §2

Take `CN(C)/C(=N/c1cc([S+]([O-])CC(F)(F)F)c(Cl)cc1Cl)C(F)(F)F` (centres unmarked) [Ib-26]: the pest or weed control at 0.8 ppm came to 0% in assay [1] and 95% in assay [2].
For the molecule `N/C(=N/c1cc([S+]([O-])CC(F)(F)F)c(Cl)cc1Br)C(F)(F)F` (centres unmarked) [Ib-57], the figures for the pest or weed control at 0.16 ppm in assay [1] (0.16 ppm) and in assay [2] (0.16 ppm) were 0% and 90%, respectively.
In the case of `CN/C(=N/c1cc([S+]([O-])CC(F)(F)F)c(Cl)cc1Cl)C(F)(F)F` (centres unmarked) [Ib-21], the pest or weed control at 0.16 ppm in assay [1] (0.16 ppm) is 0%; in assay [2] (0.16 ppm) it was 80%. Also, the pest or weed control at 0.8 ppm in assay [1] was found to be 90%; in assay [2], 95%.
For `Cc1cc(F)c(/N=C(\N)C2(F)CC2)cc1[S+]([O-])CC(F)(F)F` (centres unmarked) [Ib-19], in that order: 0%, 98%, 30% and 98%.
Turning to `Cc1cc(F)c(/N=C2\SCC(=O)N2CC(F)(F)F)cc1[S@+]([O-])CC(F)(F)F` [Ib-168], the values for the pest or weed control at 0.16 ppm in assay [1] (0.16 ppm) and in assay [2] (0.16 ppm) were 0% and 50%, respectively. The pest or weed control at 0.8 ppm in assay [1] turned out to be 30%; in assay [2], 95%.
In the same order, the values of `Cc1cc(F)c(/N=C2\CCCN2CC(F)F)cc1[S+]([O-])CC(F)(F)F` (centres unmarked) [Ib-33] are 0%, 60%, 0% and 95%.
Regarding `Cc1cc(F)c(/N=C2\CCCN2CC(F)(F)F)cc1[S+]([O-])CC(F)(F)F` (centres unmarked) [Ib-115], in assay [1], the pest or weed control at 0.8 ppm was 0% and the pest or weed control at 4 ppm was determined as 0%. In assay [2], the pest or weed control at 0.8 ppm amounted to 90% and the pest or weed control at 4 ppm came to 90%.
Take `N/C(=N/c1cc([S+]([O-])CC(F)(F)F)c(Br)cc1Br)C(F)(F)F` (centres unmarked) [Ib-18]: the figures for the pest or weed control at 0.16 ppm in assay [1] (0.16 ppm) and in assay [2] (0.16 ppm) were 0% and 99%, respectively. Besides, the figures for the pest or weed control at 0.8 ppm in assay [1] and in assay [2] were 50% and 99%, respectively.
For `N/C(=N/c1cc([S+]([O-])CC(F)(F)F)c(Br)cc1Cl)C(F)(F)F` (centres unmarked) [Ib-68], the values for the pest or weed control at 0.16 ppm in assay [1] (0.16 ppm) and in assay [2] (0.16 ppm) were 0% and 98%, respectively. In addition, the pest or weed control at 0.8 ppm in assay [1] was 80%; in assay [2], 100%.
In the case of `N/C(=N/c1ccc(C(F)(F)F)c([S+]([O-])CC(F)(F)F)c1)C(F)(F)F` (centres unmarked) [Ib-16], the values for the pest or weed control at 0.16 ppm in assay [1] (0.16 ppm) and in assay [2] (0.16 ppm) were 0% and 99%, respectively. In addition, the pest or weed control at 0.8 ppm in assay [1] came out at 40%; in assay [2], 100%.
Consider `Cc1cc(F)c(/N=C(\N)C(F)(F)F)cc1[S+]([O-])CC(F)(F)F` (centres unmarked) [Ib-11], for which the pest or weed control at 0.8 ppm is 50% in assay [1] and 100% in assay [2]. The figures for the pest or weed control at 4 ppm in assay [1] and in assay [2] were 95% and 100%, respectively.
For the molecule `Cc1cc(F)c(/N=C(\N)C2(Cl)CC2)cc1[S+]([O-])CC(F)(F)F` (centres unmarked) [Ib-22], in assay [1], the pest or weed control at 0.8 ppm came to 0% and the pest or weed control at 4 ppm turned out to be 30%. In assay [2], the pest or weed control at 0.8 ppm is 90% and the pest or weed control at 4 ppm stood at 90%.
`N/C(=N/c1cc([S+]([O-])CC(F)(F)F)c(Cl)cc1Cl)C(F)(F)F` (centres unmarked) [Ib-17]: the pest or weed control at 0.16 ppm in assay [1] (0.16 ppm) was 0%; in assay [2] (0.16 ppm) it was 98%. In addition, the pest or weed control at 0.8 ppm in assay [1] is 98%; in assay [2], 100%.
As to `CN(C)/C(=N/c1cc([S+]([O-])CC(F)(F)F)c(Br)cc1Br)C(F)(F)F` (centres unmarked) [Ib-25], the pest or weed control at 0.8 ppm in assay [1] was found to be 50%; in assay [2], 99%.
Turning to `Cc1cc(F)c(/N=C(\N(C)C)C(F)(F)F)cc1[S+]([O-])CC(F)(F)F` (centres unmarked) [Ib-01], in assay [1], the pest or weed control at 0.8 ppm amounted to 0% and the pest or weed control at 4 ppm came to 98%. Further, in assay [2], the pest or weed control at 0.8 ppm worked out at 100% and the pest or weed control at 4 ppm stood at 100%.
As to `CN/C(=N/c1cc([S+]([O-])CC(F)(F)F)c(Br)cc1Br)C(F)(F)F` (centres unmarked) [Ib-24], the pest or weed control at 0.8 ppm is 30% in assay [1] and 100% in assay [2].
`Cc1cc(F)c(/N=C(\N)c2cnccn2)cc1[S+]([O-])CC(F)(F)F` (centres unmarked) [Ib-62]: in assay [1], the pest or weed control at 0.8 ppm was 0% and the pest or weed control at 4 ppm was 0%. Besides, in assay [2], the pest or weed control at 0.8 ppm was found to be 90% and the pest or weed control at 4 ppm is 90%.
For `N/C(=N/c1cc([S+]([O-])CC(F)(F)F)c(Cl)cc1Cl)C(F)(F)F` (centres unmarked) [Ib-14], the “% effect after 14 d” value was 0% in assay [1] (0.16 ppm) and 80% in assay [2] (0.16 ppm).
